Measured values published in patent US7514438B2, “Melanin concentrating hormone receptor antagonist” (Amgen, Inc., priority 2003, dated 2009).
Like-named read-outs stand apart in the source and are kept apart here.

Experiments:
[1] = biological target: T1, rat MCH 1 receptor (rMCH1R) (Rattus norvegicus, UniProt P97639); assay: 125I-MCH ligand binding assay, rMCH; conditions: HEK 293 membranes, 0.2 nM 125I native-MCH
T1 construct: expressed in transfected cells; host or cells: HEK 293 (membranes)
T1 sequence (P97639 whole entry): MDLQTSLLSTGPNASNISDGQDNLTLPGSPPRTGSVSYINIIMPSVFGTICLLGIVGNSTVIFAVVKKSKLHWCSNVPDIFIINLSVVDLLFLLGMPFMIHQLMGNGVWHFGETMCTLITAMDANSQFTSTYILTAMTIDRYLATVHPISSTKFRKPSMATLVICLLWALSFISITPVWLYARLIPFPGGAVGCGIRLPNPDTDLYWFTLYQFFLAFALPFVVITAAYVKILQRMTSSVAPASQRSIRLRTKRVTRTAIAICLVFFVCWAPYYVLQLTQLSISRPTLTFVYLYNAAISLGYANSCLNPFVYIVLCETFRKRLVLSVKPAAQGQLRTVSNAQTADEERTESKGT
Method in brief: (§1)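 HEK293 membranes expressing rat or human MCH1R (100 µg tissue) were incubated for 90 min at 30 °C with 0.2 nM 125I-native-MCH and test compound in HEPES/MgCl2/BSA buffer with protease inhibitors, pH 7.4. Non-specific binding used 1 µM cold MCH. Filter-bound radioactivity gave IC50 by nonlinear regression.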

[2] = biological target: T2, rat MCH1 receptor (Rattus norvegicus, UniProt P97639); assay: HT-PS100 calcium mobilization functional assay; assay type: cell-based; parameters: expressed in transfected cells
T2 sequence (P97639 whole entry): as above

[3] = biological target: T3, human MCH 1 receptor (hMCH1R) (Homo sapiens, UniProt Q99705); assay: 125I-MCH ligand binding assay, hMCH; conditions: HEK 293 membranes, 0.2 nM 125I native-MCH
T3 construct: expressed in transfected cells; host or cells: HEK 293 (membranes)
T3 sequence (Q99705 whole entry): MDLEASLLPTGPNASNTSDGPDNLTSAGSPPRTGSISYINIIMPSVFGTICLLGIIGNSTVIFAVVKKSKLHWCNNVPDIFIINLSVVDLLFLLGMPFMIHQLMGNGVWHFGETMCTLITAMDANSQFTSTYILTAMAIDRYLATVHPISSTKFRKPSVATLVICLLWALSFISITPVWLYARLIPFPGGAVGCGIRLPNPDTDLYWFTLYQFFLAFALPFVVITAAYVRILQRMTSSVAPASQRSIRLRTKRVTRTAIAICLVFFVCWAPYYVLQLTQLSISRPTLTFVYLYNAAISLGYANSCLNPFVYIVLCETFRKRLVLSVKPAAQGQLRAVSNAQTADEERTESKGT
Method in brief: as §1

[4] = biological target: T4, human MCH receptor (Homo sapiens, UniProt Q99705); assay: hMCH FLIPR calcium mobilization assay; assay type: cell-based
T4 construct: expressed in transfected cells
T4 sequence (Q99705 whole entry): as above

[5] = biological target: T2, rat MCH1 receptor; assay: rMCH FLIPR calcium mobilization assay (CHOK1-Gqi cells); assay type: cell-based; parameters: expressed in transfected cells; host or cells: CHOK1-Gqi; conditions: CHOK1-Gqi cells, rat MCH1 receptor, 100 μM or less list
Method: Pharmacological analyses were conducted using either a HT-PS100 device (Axiom Biotechnologies, San Diego, Calif.), which provides high-resolution dose-response fluorometric measurements of [Ca^++]i mobilization, or using a FLIPR® device (Molecular Devices, Sunnyvale, Calif.).
Materials: Pharmacological analysis was conducted using a FLIPR® device (Molecular Devices, Sunnyvale, Calif.). CHOK1-Gqi cells were stably transfected with the rat MCH1 receptor and maintained under G418 antibiotic pressure. FLIPR® assay buffer consisted of phenol red-free DMEM+2.5 mM probenecid. […]. Test compounds were prepared as 10 mM stocks in 100% DMSO and diluted to a top end working concentration of 10 μM in 96 well black, flat bottom, collagen-I coated plates (Becton Dickinson, Bedford, Mass.).
Methods: CHOK1-Gqi cells stably expressing MCH1R were maintained in Dulbeco's modified Eagle's medium (GIBCO/Life Technologies, Rockville, Md.) supplemented with 2 mM glutamine and 10% dialyzed fetal bovine serum (HyCLone, Logan, Utah) at 37° C., 5% CO2. Cells were harvested by 10′ treatment with Versene (GIBCO/Life Technologies) followed by trituration, washing twice with cold (4° C.) hybridoma medium (Serum/Protein free, with L-glutamine, sodium bicarbonate, MOPS buffer) (Sigma-Aldrich Corp, St. Louis, Mo.) and replated onto 96 well black, flat bottom, collagen-I coated plates to a density of 10,000 cells/well. The cells were then loaded with the fluorescent calcium indicator Fura-2 (Molecular Probes, Eugene, Oreg.) at 1.6 μM for 60′ at room temperature. The loaded cells were then washed twice with 90 μl/well of wash buffer (1×HBSS, 20 mM HEPES, 2.5 mM probenecid).
Receptor-stimulated intracellular calcium responses were detected using FLIPR® by monitoring increases in the Fura-2 fluorescence response.
Test compounds were screened for MCH1R activity in the FLIPR® for both agonist and antagonist action. Agonist mode challenges were conducted at a maximum gradient concentration of 1 μM. Antagonist activity was tested by 10 min pre-incubation of cells at a compound concentration of defined to be 300× the EC50 of MCH (typically 1 μM), with subsequent introduction of MCH at a concentration 5-fold of EC50 as determined in preliminary experiments. […].
Several fixed concentrations of antagonist compounds were prepared in 10-fold increments, and presented to the cells in a gradient of increasing MCH concentration. Values for compound pA2 were calculated by linear regression of MCH EC50s as a function of antagonist concentration.

[6] = 100 μM or less list, read-out: IC50 in the rMCH binding assay
[7] = HEK 293 cells stably transfected with rat MCH1 receptor, 100 nM or less list, read-out: Ki in the HT-PS100 assay
[8] = 100 μM or less list, read-out: IC50 in the hMCH binding assay
[9] = 100 μM or less list, read-out: Ki in the hMCH FLIPR assay
[10] = read-out: Ki in the rMCH FLIPR assay
[11] = 100 nM or less list, read-out: IC50 in the hMCH binding assay
[12] = 100 nM or less list, read-out: IC50 in the rMCH binding assay
[13] = 100 nM or less list, read-out: Ki in the hMCH FLIPR assay

| SMILES | IC50 [1, 6] | Ki [2, 7] | IC50 [3, 8] | Ki [4, 9] | Ki [5, 10] | IC50 [3, 11] | IC50 [1, 12] | Ki [4, 13] | IC50 ([1]; IC50 in the rMCH binding assay, 100 μM or less list) | Ki [2] | IC50 ([3]; IC50 in the hMCH binding assay, 100 μM or less list) | Ki ([4]; Ki in the hMCH FLIPR assay, 100 nM or less list) | Ki ([4]; Ki in the hMCH FLIPR assay, 100 μM or less list) | Ki ([5]; Ki in the rMCH FLIPR assay) |
| --- | --- | --- | --- | --- | --- | --- | --- | --- | --- | --- | --- | --- | --- | --- |
| Cc1cccc([C@@H](c2nnnn2-c2c(C)cccc2C)N2CCN(C/C=C/c3ccccc3)CC2)c1 (racemic) [Compound 61, 1-{[1-(2,6-dimethylphenyl)-1H-tetrazol-5-yl]-m-tolylmethyl}-4-(3-phenylallyl) piperazine] | ≤ 100 µM | ≤ 100 nM | ≤ 100 µM | ≤ 100 µM | ≤ 100 µM |  |  |  |  |  |  |  |  |  |
| Cc1cccc(C)c1-n1nnnc1[C@H](c1ccc2ccccc2c1)N1CCN(C/C=C/c2ccccc2)CC1 (racemic) [Compound 62, 1-{[1-(2,6-dimethylphenyl)-1H-tetrazol-5-yl]naphthalen-2-ylmethyl}-4-(3-phenylallyl)piperazine] | ≤ 100 µM | ≤ 100 nM | ≤ 100 µM | ≤ 100 µM | ≤ 100 µM | ≤ 0.1 µM |  |  |  |  |  |  |  |  |
| Cc1cccc(C)c1-n1nnnc1[C@H](c1ccc(OCc2ccccc2)cc1)N1CCN(C/C=C/c2ccccc2)CC1 (racemic) [Compound 70, 1-{(4-benzyloxyphenyl)-[1-(2,6-dimethylphenyl)-1H-tetrazol-5-yl]methyl}-4-(3-phenylallyl)piperazine] | ≤ 100 µM | ≤ 100 nM | ≤ 100 µM | ≤ 100 µM | ≤ 100 µM | ≤ 0.1 µM | ≤ 0.1 µM | ≤ 0.1 µM |  |  |  |  |  |  |
| COc1cccc([C@@H](c2nnnn2-c2c(C)cccc2C)N2CCN(C/C=C/c3ccccc3)CC2)c1 (racemic) [Compound 77, 1-[[1-(2,6-dimethylphenyl)-1H-tetrazol-5-yl]-(3-methoxyphenyl)methyl]-4-(3-phenylallyl)piperazine] | ≤ 100 µM | ≤ 100 nM | ≤ 100 µM | ≤ 100 µM | ≤ 100 µM | ≤ 0.1 µM |  |  |  |  |  |  |  |  |
| Cc1cccc(C)c1-n1nnnc1[C@H](c1ccc(-n2ccnc2)cc1)N1CCN(C/C=C/c2ccccc2)CC1 (racemic) [Compound 78, 1-[[1-(2,6-dimethylphenyl)-1H-tetrazol-5-yl]-(4-imidazol-1-ylphenyl)methyl]-4-(3-phenylallyl)piperazine] | ≤ 100 µM | ≤ 100 nM | ≤ 100 µM | ≤ 100 µM | ≤ 100 µM | ≤ 0.1 µM |  |  |  |  |  |  |  |  |
| Cc1cccc(C)c1-n1nnnc1[C@H](c1cccc(C#N)c1)N1CCN(C/C=C/c2ccccc2)CC1 (racemic) [Compound 79, 3-{[1-(2,6-dimethylphenyl)-1H-tetrazol-5-yl]-[4-(3-phenylallyl)piperazin-1-yl]methyl}benzonitrile] | ≤ 100 µM | ≤ 100 nM | ≤ 100 µM | ≤ 100 µM | ≤ 100 µM |  | ≤ 0.1 µM | ≤ 0.1 µM |  |  |  |  |  |  |
| Cc1cccc(C)c1-n1nnnc1[C@H](c1cccc(O)c1)N1CCN(C/C=C/c2ccccc2)CC1 (racemic) [Compound 82, 3-{[1-(2,6-dimethylphenyl)-1H-tetrazol-5-yl]-[4-(3-phenylallyl)piperazin-1-yl]methyl}phenol] |  |  |  |  |  |  |  |  | ≤ 100 µM | ≤ 100 nM | ≤ 100 µM | ≤ 0.1 µM | ≤ 100 µM | ≤ 100 µM |
| Cc1cccc(C)c1-n1nnnc1[C@H](c1ccc2c(c1)OCO2)N1CCN(C/C=C/c2ccccc2)CC1 (racemic) [Compound 83, 1-{benzo[1,3]dioxol-5-yl-[1-(2,6-dimethylphenyl)-1H-tetrazol-5-yl]methyl}-4-(3-phenylallyl)piperazine] | ≤ 100 µM | ≤ 100 nM | ≤ 100 µM | ≤ 100 µM | ≤ 100 µM |  |  |  |  |  |  |  |  |  |
| Cc1cccc(C)c1-n1nnnc1[C@H](c1cccc(OCCO)c1)N1CCN(C/C=C/c2ccccc2)CC1 (racemic) [Compound 84, 2-(3-{[1-(2,6-dimethylphenyl)-1H-tetrazol-5-yl]-[4-(3-phenylallyl)piperazin-1-yl]methyl}phenoxy)ethanol] | ≤ 100 µM | ≤ 100 nM | ≤ 100 µM | ≤ 100 µM | ≤ 100 µM | ≤ 0.1 µM | ≤ 0.1 µM |  |  |  |  |  |  |  |
| Cc1cccc(C)c1-n1nnnc1[C@H](c1ccccc1)N1CCN(C/C=C/c2ccccc2)CC1 [Compound 1, 1-{[1-(2,6-dimethyiphenyl)-1H-tetrazol-5-yl]phenylmethyl}-4-(3-phenylallyl)piperazine] | ≤ 100 µM | ≤ 100 nM | ≤ 100 µM | ≤ 100 µM | ≤ 100 µM | ≤ 0.1 µM | ≤ 0.1 µM |  |  |  |  |  |  |  |
